Here are results for three compounds from patent US20100297673A1, “METHODS AND COMPOSITIONS FOR UPREGULATION OF PEROXIREDOXIN ACTIVITY” (Reddy US Therapeutics, priority 2006, published 2010).

For assay [1] the following is noted: in vivo; cited from earlier work.
Assay [2] deals with HepG2 cells. The assay can be described thus: Real time-PCR gene expression in HepG2 cells. Format: cell-based, human. The protocol:
HepG2 cells were prepared from the T-75 flasks and were used to seed the 24-well plates with 1.6×10^5 cells per well per 1 ml of growth media. The next day, the media was removed and 1 ml of low-serum growth media was added to each well for 24 hours. The following day, the low-serum media was removed. In selected experiments, cells were treated with 100 uM H2O2 or si-Peroxiredoxin I. Media was removed and cells were lysed with the lysis buffer from the Ambion RNAqueous kit and plate was placed on ice. RNA was extracted using the kit according to the protocol. The RNA was quantitated using a spectrophotometer and frozen at −80° C. The next day, the RNA was used for real-time PCR. The RNA was thawed and master mixes for each primer were prepared with the Stratagene Full Velocity SYBR Green QRT-PCR Master Mix. Master Mix with primer was added to the appropriate wells then RNA was added to appropriate wells. […]
HepG2 cells were grown in T-75 flasks prior to study. […] Total cholesterol and apoB levels were measured using an enzymatic assay. Percentage change was evaluated by comparing to both the baseline and the vehicle at the end of the study. […] RNA was isolated according to the manufacturer's protocol (Qiagen) and analyzed for changes in gene expression normalized to actin using RT-PCR. […]

For assay [3], the system named is HepG2 cells. The assay can be described thus: Dil-LDL uptake assay in HepG2 cells. In kind it is cell-based, human. The protocol:
Glass cover slips were autoclaved and aseptically transferred to 6-well tissue culture plates in a tissue culture hood. HepG2 cells were prepared from the T-75 flasks and were used to seed the 6-well plates (containing sterile cover slips) with 7.5×10^5 cells per well per 1 ml of growth media. The following day, the media was removed and the wells were washed 3 times with 2 mL DMEM+10% DLCS very gently. After washes, 2 ml of DMEM+10% (DLCS) was added to the wells and treatments continued for 24 hours. In selected experiments, cells were treated with 100 uM H2O2, control IgG or perlecan antibodies. The next day, the media was not changed and Dil LDL and DAPI were added to wells for uptake (5 hours). After the uptake was completed, the wells were washed gently 3 times with PBS (2 mL/well/wash) and after last wash, cells were fixed with 1 mL of 4% formaldehyde in PBS for 20 minutes. Wells were washed 5 times with water in excess. Cover slips were then mounted to slides using clearmount. Slides were stored at −20° C. The slides were imaged using the Nikon microscope and ColdSNAP-Pro camera. […] Images were quantitated using Image Pro-Plus software. The intensity per area of the fluorescent label was quantitated using the software and was used to generate the figure which is LDL uptake per area as a percent of the control.

Another assay relates to Stat1. The assay can be described thus: Stat1 activity assay (Stat1-luciferase reporter). Format: cell-based, human. The following applies: HepG2 transfected with Stat1-luciferase. The protocol: HepG2 cells were prepared from the T-75 flasks and were used to seed the 24-well plates with 7.6×10^4 cells per well per 0.5 ml of DMEM+10% FBS. The next day, Stat1-lucuferase transfections were set up with Fugene6 according to the manufacturer's directions. In brief, transfection mixtures were prepared in DMEM in separate tubes from the reporter constructs also in DMEM. The samples incubated for 5 minutes at room temperature. Then, the constructs were mixed with the Fugene6 and incubated again for 30 minutes at room temperature. Then 50 μl transfection mix was added to each well in the existing media. Cells were allowed to incubate over night. In selected experiments, cells were treated with 100 uM H2O2 as well as with siPRDX1. After treatment, cells were lysed with the Promega lysis buffer. The wells were scraped and lysates were transferred into pre-chilled tubes and the lysates were cleared via centrifugation. 20 μl of cleared lysate was added to wells in 96 well clear plates and 100 μl of luciferase assay buffer was added to wells. Relative light units were counted using the PerkinElmer Envision.
HepG2 were transiently transfected with a Stat1-luciferase reporter construct and subject to treatment with either H2O2 or siPeroxiredoxin 1. Bars show the mean±SD. Asterisks indicate statistical difference from the Mock group with significance values of p<0.05. […]
A general note: A reporter such as luciferase makes a cellular process visible.

The next assay concerns Peroxiredoxin. The assay can be described thus: Peroxiredoxin activity assay (NADPH oxidation coupled to H2O2 reduction). Format: biochemical. The following applies: addition to liver cells (FIG. 3); assay method states 500 nM compound A. As for the experimental part:
An in vitro assay was developed to identify compounds that activated Peroxiredoxin (Peroxiredoxin inducers). In a 96-well plate, Peroxiredoxin (0.1 μg) was incubated with 5 μM of an unknown candidate compound and mixed with Hepes buffer containing NADPH, thioredoxin, thioredoxin reductase and hydrogen peroxide. When hydrogen peroxide was reduced by the activated Peroxiredoxin, the quantitative indicator, NADPH was converted to NADP. A decrease in NADPH was monitored by determining the absorption at […]. A decrease in NADPH was therefore, indicative of a Peroxiredoxin inducer.
Peroxiredoxin-mediated reduction of H2O2 was coupled to oxidation of NADPH oxidation. NADPH oxidation was monitored as a decrease in absorbance at 340 nm (A340). The control reaction contained 50 mM Hepes-NaOH (pH 7.0), 1 mM EDTA, 2 μM thioredoxin, 150 nM thioredoxin reductase, H2O2 (8.8 mM), NADPH ([…]), and Peroxiredoxin (1 μM). The treatment group in addition contained 500 nM of compound A. The reaction was incubated for 30 seconds to 10 minutes and the change in absorbance was monitored.

The test system of the next assay is LDL-receptor null mice. Kind of assay: Hyperlipidemia model, LDL-receptor null mice on cholesterol diet. Format: in vivo. Conditions: 100 mg/kg oral once a day, 15 days, plasma, vs vehicle. The protocol:
First, 14 week old LDL-receptor null mice were fed with a diet containing 0.8% cholesterol, 0.1% cholic acid and 20% coconut oil and once a day orally dosed with carboxymethyl cellulose suspension alone Compound A at 100 mg/kg (in carboxymethyl cellulose suspension) for 15 days. At the end of the study, plasma levels of cholesterol and triglycerides were determined using an enzymatic method (INFINITY™ Sigma Diagnostics).

The test system of assay [4] is apolipoprotein E-null mice. Kind of assay: Hyperlipidemia model, apolipoprotein E-null mice. Conditions: 100 mg/kg oral once a day, 14 days, plasma, vs vehicle. In kind it is in vivo. As for the experimental part:
Second, 8 week old apolipoprotein E-null mice were fed with normal chow diet and once a day orally dosed with carboxymethyl cellulose suspension alone or Compound A at 100 mg/kg (in carboxymethyl cellulose suspension) for 14 days. At the end of the study, plasma levels of cholesterol and triglycerides were determined.

The test system of assay [5] is Human Aortic Smooth Muscle cells. Kind of assay: Cellular peroxide levels (Amplex Red Kit). In kind it is cell-based. Conditions: 3 uM compound, 30 min pre-incubation then 1 hour in growth media, cell lysates. The protocol: H2O2 levels in human aortic smooth muscle cells (Rockland, Me. Clonetics, catalog #CC-2535) were measured using Amplex Red Kit (Molecular Probes). Smooth muscle cells were cultured in Clonetics growth media containing 5% fetal bovine serum. Cells at 70 percent confluence were starved overnight in serum free media and incubated for further 30 min in serum free media alone (control) or medium containing […] compound A (treatment) for 30 minutes. Growth media containing serum was then added and incubated for one hour. The cells were then lysed and H2O2 was assayed in lysates using Amplex Red Kit (Molecular Probes).
To establish that compound mediated activation of Peroxiredoxin will result in decreased H2O2, H2O2 levels were measured in untreated (control) and compound A treated smooth muscle cells (See FIG. 16). Human Aortic Smooth Muscle cells at 70 percent confluence were starved overnight in basal media and incubated for further 30 min in basal medium alone (control) or medium containing 3 uM compound (treatment) for 30 minutes. Growth media was then added to the control sample and growth media plus compound was added to the treatment group and incubated for one hour. The cells were then lysed and H2O2 was assayed in lysates using Amplex Red Kit (Molecular Probes).

The next assay deals with MCP-1. The assay can be described thus: MCP-1 ELISA in TNFα-induced endothelial cells. Format: cell-based. Conditions: Homo sapiens, Endothelial cell, 0.5 ng/ml TNFα, overnight, read-out: inhibition of MCP-1 levels. As for the experimental part: MCP-1 ELISA is carried out using Quantikine Human MCP-1 kit as described by manufacturer (R&D Systems, Minneapolis, Minn., Catalog #DY279E). Mouse anti-human MCP-1 was used as the capture antibody and HRP-conjugated goat anti-human MCP-1 (Zymed (now part of Invitrogen) catalog #81-1620, Carlsbad, Calif.) was used as the detection antibody. Culture media were incubated with capture antibody (in 96 well) for 2 hours at room temperature. Wells were washed three times with wash buffer (0.05% tween-20 in phosphate buffered saline (PBS) pH 7.4) followed by incubation with detection antibody for 2 hours at room temperature. Color development was read at 450 nm in a Microplate reader.
TNF-alpha (TNFα) (R&D Systems, Minneapolis, Minn., Catalogue No. 210-TA-010) is a pro-inflammatory cytokine implicated in the development of cardiovascular disease. Inflammatory markers produced in response to TNFα include monocyte chemoattractant protein—MCP-1, and vascular cell adhesion molecule—VCAM-1. […] To determine whether compound mediating the activation of Peroxiredoxin will result in decreased inflammation, MCP-1 and VCAM-1 levels were measured in TNFα-induced endothelial cells. […] After fixing the cells, VCAM-1 expression was detected with the primary and secondary antibodies. Colorimetric measurements with made with the Multiskan Ascent plate reader.
(An ELISA detects its analyte on a solid surface through an enzyme-linked reagent.)

For another assay, the system named is VCAM-1. Kind of assay: VCAM-1 ELISA in TNFα-induced endothelial cells. In kind it is cell-based. Conditions: Homo sapiens, Endothelial cell, 0.5 ng/ml TNFα, overnight, read-out: inhibition of VCAM-1 levels. As for the experimental part:
Endothelial cell surface VCAM-1 was measured following compound A treatments. The cell layer was washed once with PBS and fixed with methanol. After fixing the cells, VCAM-1 expression was detected with the primary VCAM-1 antibody (goat-anti-Human VCAM-1 antibody—catalog# BBA19, R&D Systems) and secondary anti-goat antibody conjugated to horse radish peroxidase. Colorimetric measurements with made with the Multiskan Ascent plate reader.
TNF-alpha (TNFα) (R&D Systems, Minneapolis, Minn., Catalogue No. 210-TA-010) is a pro-inflammatory cytokine implicated in the development of cardiovascular disease. Inflammatory markers produced in response to TNFα include monocyte chemoattractant protein—MCP-1, and vascular cell adhesion molecule—VCAM-1. Endothelial cells are known to produce these markers in response TNFα. To determine whether compound mediating the activation of Peroxiredoxin will result in decreased inflammation, MCP-1 and VCAM-1 levels were measured in TNFα-induced endothelial cells. Cells were stimulated with 0.5 ng/ml of TNFα with or without compound A in basal media supplemented with 1% FBS. Each treatment condition was done in triplicate. […] After fixing the cells, VCAM-1 expression was detected with the primary and secondary antibodies. Colorimetric measurements with made with the Multiskan Ascent plate reader.

A further assay relates to TNF-α. Kind of assay: LPS-induced acute inflammation in rats, serum TNF-α ELISA. The following applies: 60 mg/kg oral, LPS 1 mg/kg i.p., serum 1 hour after LPS. In kind it is in vivo, Sprague Dawley rats. As for the experimental part: The compound A was orally administrated (60 mg/kg) to female Sprague Dawley rats followed by intraperitoneal administration lipopolysaccharide (LPS−1 mg/kg). Blood samples were collected 1 hour after LPS administration. TNF-α level in the serum was analyzed by using ELISA.

In the case of `O=C1[C@H](CC[C@H](O)c2ccc(F)cc2)[C@@H](c2ccc(O)cc2)N1c1ccc(F)cc1` [Ezetimibe], the cholesterol lowering in assay [1] is 15-18%.
With `OO` [Compound H2O2, hydrogen peroxide], in the assay on HepG2 cells [2], the “LDLr mRNA levels” value was “did not have a significant effect” and the perlecan expression levels entry is “significantly reduced”. Further, the “LDL uptake by liver cells” value in the assay on HepG2 cells [3] is recorded as “significantly decreased”. The “Stat1 driven luciferase expression” value in the assay with Stat1 was “significantly enhanced”.
Consider `COc1ccc(Nc2nc(NC3CCCCCC3)nc(N3CCC(OC(=O)CCC(=O)O)CC3)n2)cc1Cl` [Compound A], for which the “increase in Peroxiredoxin activity over controls” value with Peroxiredoxin was 48%. Also, in the assay with LDL-receptor null mice, the LDL cholesterol entry is “reduction”, the VLDL cholesterol result is on record as “reduction”, the total cholesterol entry is on record as “reduction” and the triglycerides entry was “reduction”. In addition, the total triglycerides entry in assay [4] is listed as “reduction”. Further, in [5], the “decrease in H2O2 levels vs untreated control” value is “approximately 77%”. For the same compound, the inhibition at 2.5 µM with MCP-1 came out at 75%. In the assay on VCAM-1, the inhibition at 2.5 µM worked out at 75%. In addition, in the assay with TNF-α, the “inhibition of LPS-induced TNFα elevation” value is “completely inhibited” and the “serum TNFα level” value is given as “undetectable”.

One may read the inhibition as the relative decrease from the control value, in per cent.
